Assay results taken from patent US10246456B2, “IRAK4 inhibiting agents” (BIOGEN MA INC., priority 2014, dated 2019).

molecular target: IRAK4 (Homo sapiens (Human), UniProt Q9NWZ3); assay: IRAK-4 AlphaScreen biochemical kinase assay; conditions: 1 nM IRAK4, 1 mM ATP, 3.5 h at RT
Procedure: The biochemical assay is in a AlphaScreen format. The kinase reaction is based on the IRAK-4 phosphorylation of a biotin labeled peptide. The phosphopeptide is incubated with anti-phosphothreonine antibody as well as streptavidin- and protein A-coated beads. Binding of the protein-A coated beads to the antibody and the streptavidin beads to the peptide, leads to an energy transfer from one bead to the other, ultimately producing a luminescent/fluorescent signal.

Chain of IRAK4 (Q9NWZ3 whole entry, species assumed): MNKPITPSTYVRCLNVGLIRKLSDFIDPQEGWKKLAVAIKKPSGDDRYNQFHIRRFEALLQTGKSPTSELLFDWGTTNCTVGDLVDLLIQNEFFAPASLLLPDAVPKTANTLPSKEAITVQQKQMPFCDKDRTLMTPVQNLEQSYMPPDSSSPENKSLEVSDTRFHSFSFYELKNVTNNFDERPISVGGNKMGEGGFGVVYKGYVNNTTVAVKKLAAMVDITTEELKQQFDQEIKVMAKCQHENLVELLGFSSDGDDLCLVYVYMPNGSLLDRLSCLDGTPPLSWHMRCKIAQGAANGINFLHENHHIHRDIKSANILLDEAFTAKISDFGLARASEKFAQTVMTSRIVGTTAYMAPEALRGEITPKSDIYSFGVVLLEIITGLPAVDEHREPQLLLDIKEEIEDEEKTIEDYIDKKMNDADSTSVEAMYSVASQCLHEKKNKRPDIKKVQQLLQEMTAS

Compound | IC50 [nM]
1-(6-methylpyridin-2-yl)-1H-pyrazolo[4,3-c]pyridin-7-amine [Example 200] | < 100
CC(N)c1cccc(-c2ccc3cnn(-c4cccc(C(F)(F)F)n4)c3c2)n1 (racemic) [Example 209, 1-(6-(1-(6-(trifluoromethyl)pyridin-2-yl)-1H-indazol-6-yl)pyridin-2-yl)ethanamine] | < 100
CNC(C)c1cccc(-c2ccc3cnn(-c4cccc(C(F)(F)F)n4)c3c2)n1 (single isomer, unassigned) [Example 117, N-methyl-1-(6-(1-(6-(trifluoromethyl)pyridin-2-yl)-1H-indazol-6-yl)pyridin-2-yl)ethanamine] | < 100
CCC[C@H](N)c1cccc(-c2ccc3cnn(-c4cccc(C(C)O)n4)c3c2)n1 (single isomer, unassigned) [Example 417] | < 100
CC(N)c1cccc(-c2ccc3cnn(-c4cccc(C(F)(F)F)n4)c3c2)n1 (single isomer, unassigned; isomer a) [Example 83, 1-(6-(1-(6-(trifluoromethyl)pyridin-2-yl)-1H-indazol-6-yl)pyridin-2-yl)ethanamine-isomer A] | < 100
CC(N)c1cccc(-c2ccc3cnn(-c4cccc(C(F)(F)F)n4)c3c2)n1 (single isomer, unassigned; isomer b) [Example 84, 1-(6-(1-(6-(trifluoromethyl)pyridin-2-yl)-1H-indazol-6-yl)pyridin-2-yl)ethanamine-isomer B] | < 100
Cc1cccc(-n2ncc3ccc(-c4cccc(N)n4)cc32)n1 [Example 1, 6-(1-(6-methylpyridin-2-yl)-1H-indazol-6-yl)pyridin-2-amine] | 100 to 1000
Cc1cccc(-n2ncc3ccc(-c4nccc(N)n4)cc32)n1 [Example 2, 2-(1-(6-methylpyridin-2-yl)-1H-indazol-6-yl)pyrimidin-4-amine] | 1000 to 10000
Cc1cccc(-n2ncc3ccc(-c4cc(N)ccn4)cc32)n1 [Example 3, 2-(1-(6-methylpyridin-2-yl)-1H-indazol-6-yl)pyridin-4-amine] | 1000 to 10000
Cc1cccc(-n2ncc3ccc(-c4cccc(CN)n4)cc32)n1 [Example 4, (6-(1-(6-methylpyridin-2-yl)-1H-indazol-6-yl)pyridin-2-yl)methanamine] | 100 to 1000
Cc1cccc(-n2ncc3ccc(-c4cc(CN)ccn4)cc32)n1 [Example 5, (2-(1-(6-methylpyridin-2-yl)-1H-indazol-6-yl)pyridin-4-yl)methanamine] | 1000 to 10000
Cc1cccc(-n2ncc3ccc(-c4ccnc(N)c4)cc32)n1 [Example 6, 4-(1-(6-methylpyridin-2-yl)-1H-indazol-6-yl)pyridin-2-amine] | 100 to 1000
Cc1cccc(-n2ncc3ccc(-c4cccc(N)c4)cc32)n1 [Example 8, 3-(1-(6-methylpyridin-2-yl)-1H-indazol-6-yl)aniline] | 100 to 1000
Cc1cccc(-n2ncc3ccc(-c4nccc(CN)n4)cc32)n1 [Example 9, (2-(1-(6-methylpyridin-2-yl)-1H-indazol-6-yl)pyrimidin-4-yl)methanamine] | 100 to 1000
Cc1cccc(-n2ncc3ccc(-c4cncc(N)c4C)cc32)n1 [Example 10, 4-methyl-5-(1-(6-methylpyridin-2-yl)-1H-indazol-6-yl)pyridin-3-amine] | 1000 to 10000
Cc1cccc(-n2ncc3ccc(-c4cc(N)cnc4O)cc32)n1 [Example 11, 5-amino-3-(1-(6-methylpyridin-2-yl)-1H-indazol-6-yl)pyridin-2-ol] | 1000 to 10000
Cc1cccc(-n2ncc3ccc(-c4cncc(N)c4O)cc32)n1 [Example 12, 3-amino-5-(1-(6-methylpyridin-2-yl)-1H-indazol-6-yl)pyridin-4-ol] | 1000 to 10000
CNc1cncc(-c2ccc3cnn(-c4cccc(C)n4)c3c2)c1 [Example 13, N-methyl-5-(1-(6-methylpyridin-2-yl)-1H-indazol-6-yl)pyridin-3-amine] | 100 to 1000

Compound | IC50 [nM]
Cc1cccc(-n2ncc3ccc(-c4cccc(CN(C)C)n4)cc32)n1 [Example 14, N,N-dimethyl-1-(6-(1-(6-methylpyridin-2-yl)-1H-indazol-6-yl)pyridin-2-yl)methanamine] | 100 to 1000
Cc1cccc(-n2ncc3ccc(-c4cccc5c4CCNC5)cc32)n1 [Example 15, 5-(1-(6-methylpyridin-2-yl)-1H-indazol-6-yl)-1,2,3,4-tetrahydroisoquinoline] | 1000 to 10000
Cc1cccc(-n2ncc3ccc(-c4cccc5c4CCN(C)C5)cc32)n1 [Example 16, 2-methyl-5-(1-(6-methylpyridin-2-yl)-1H-indazol-6-yl)-1,2,3,4-tetrahydroisoquinoline] | 1000 to 10000
Cc1cccc(-n2ncc3ccc(-c4cccc5c4CN(C)C5)cc32)n1 [Example 17, 6-(2-methylisoindolin-4-yl)-1-(6-methylpyridin-2-yl)-1H-indazole] | 1000 to 10000
CNCc1cccc(-c2ccc3cnn(-c4cccc(C)n4)c3c2)c1 [Example 18, N-methyl-1-(3-(1-(6-methylpyridin-2-yl)-1H-indazol-6-yl)phenyl)methanamine] | < 100
N#Cc1cccc(-n2ncc3ccc(-c4cccc(N)c4)cc32)c1 [Example 20, 3-(6-(3-aminophenyl)-1H-indazol-1-yl)benzonitrile] | 100 to 1000
Nc1cccc(-c2ccc3cnn(-c4ccccn4)c3c2)c1 [Example 21, 3-(1-(pyridin-2-yl)-1H-indazol-6-yl)aniline] | 100 to 1000
N#Cc1cccc(-n2ncc3ccc(-c4cccc(N)c4)cc32)n1 [Example 22, 6-(6-(3-aminophenyl)-1H-indazol-1-yl)picolinonitrile] | < 100
Cc1cc(C)nc(-n2ncc3ccc(-c4cccc(N)c4)cc32)c1 [Example 23, 3-(1-(4,6-dimethylpyridin-2-yl)-1H-indazol-6-yl)aniline] | 1000 to 10000
Cc1ccc(-n2ncc3ccc(-c4cccc(N)c4)cc32)nc1C [Example 24, 3-(1-(5,6-dimethylpyridin-2-yl)-1H-indazol-6-yl)aniline] | 1000 to 10000
Nc1cccc(-c2ccc3cnn(-c4cccc(C(F)(F)F)n4)c3c2)c1 [Example 25, 3-(1-(6-(trifluoromethyl)pyridin-2-yl)-1H-indazol-6-yl)aniline] | < 100
Nc1cncc(-c2ccc3cnn(-c4cccc(C5CC5)n4)c3c2)c1 [Example 27, 5-(1-(6-cyclopropylpyridin-2-yl)-1H-indazol-6-yl)pyridin-3-amine] | < 100
Nc1cncc(-c2ccc3cnn(-c4cccc(C5CCC5)n4)c3c2)c1 [Example 28, 5-(1-(6-cyclobutylpyridin-2-yl)-1H-indazol-6-yl)pyridin-3-amine] | 1000 to 10000
N#Cc1cccc(-n2ncc3ccc(-c4cncc(N)c4)cc32)n1 [Example 29, 6-(6-(5-aminopyridin-3-yl)-1H-indazol-1-yl)picolinonitrile] | < 100
Nc1cncc(-c2ccc3cnn(-c4cccc(C(=O)O)n4)c3c2)c1 [Example 30, 6-(6-(5-aminopyridin-3-yl)-1H-indazol-1-yl)picolinic acid] | 100 to 1000
NC(=O)c1cccc(-n2ncc3ccc(-c4cncc(N)c4)cc32)n1 [Example 31, 6-(6-(5-aminopyridin-3-yl)-1H-indazol-1-yl)picolinamide] | < 100
CNC(=O)c1cccc(-n2ncc3ccc(-c4cncc(N)c4)cc32)n1 [Example 32, 6-(6-(5-aminopyridin-3-yl)-1H-indazol-1-yl)-N-methylpicolinamide] | 100 to 1000
